Square brackets hold non-standard residues; d marks the D form. Peptide text beside a SMILES is read from it. * marks the point of attachment. Isoquinolin(3-yl)carbonyl = O=C(c1cc2ccccc2cn1)*; Quinoline4carbonyl = O=C(c1ccnc2ccccc12)*; Acetyl(3-pyridyl) = O=C(Cc1cccnc1)*; Acetyl(4-pyridyl) = O=C(Cc1ccncc1)*; Benzoyl(4-OH) = O=C(c1ccc(O)cc1)*; d3Pal = N[C@H](Cc1cccnc1)C(=O)O; Isonicotinoyl = O=C(c1ccncc1)*; X1 = O=C(c1cc2cc(O)ccc2cc1O)*; X5 = O=C(c1nccc2ccccc12)*
These compounds were tested against Aβ1-40 (Homo sapiens, UniProt P05067). Settings: Table IV; hydrophobic modifying groups; 5 μM test compound.
Assay type: biochemical
Parameters: ΔLag: unit not given here
Description: The nucleation assay is employed to determine the ability of test compounds to alter (e.g. inhibit) the early events in formation of β-AP fibers from monomeric β-AP. Characteristic of a nucleated polymerization mechanism, a lag time is observed prior to nucleation, after which the peptide rapidly forms fibers as reflected in a linear rise in turbidity. The time delay before polymerization of β-AP monomer can be quantified as well as the extent of formation of insoluble fiber by light scattering (turbidity). Polymerization reaches equilibrium when the maximum turbidity reaches a plateau The turbidity of a solution of natural β-AP in the absence or presence of various concentrations of a β-amyloid modulator compound is determined by measuring the apparent absorbance of the solution at 405 nm (A405 nm) over time. The threshold of sensitivity for the measurement of turbidity is in the range of 15-20 μM β-AP. […] This assay can be performed using stirring or shaking to accelerate polymerization, thereby increasing the speed of the assay. Moreover the assay can be adapted to a 96-well plate format to screen multiple compounds.
HFIP-solubilized peptide is sonicated in a waterbath sonicator for 5 min at highest setting, then evaporated to dryness under a stream of argon. The peptide film is resuspended in anhydrous dimethylsulfoxide (DMSO) at a concentration of 6.9 mg/ml (25× concentration), sonicated for 5 min as before, then filtered through a 0.2 micron nylon syringe filter (VWR cat. No.28196-050). Test compounds are dissolved in DMSO at a 100× concentration. […] Ten microliters of the mixture is then added to the bottom of a well of a Corning Costar ultra low binding 96-well plate (Coming Costar, Cambridge Mass.; cat. No. 2500). Ninety microliters of water is added to the well, the plate is shaken on a rotary shaken at a constant speed at room temperature for 30 seconds, an additional 100 μl of 2× PTL buffer (20 mM NaH2PO4, 300 mM NaCl, pH 7.4) is added to the well, the plate is reshaken for 30 seconds and a baseline (t=0) turbidity reading is taken by measuring the apparent absorbance at 405 nm using a Bio-Rad Model 450 Microplate Reader. The plate is then returned to the shaker and shaken continuously for 5 hours. Turbidity readings are taken at 15 minute intervals.
β-amyloid aggregation in the absence of any modulators results in enhanced turbidity of the natural β-AP solution (i.e., an increase in the apparent absorbance at 405 nm over time). […]

Sequence of Aβ1-40 (P05067 672-711): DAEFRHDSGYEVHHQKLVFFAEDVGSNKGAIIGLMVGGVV

Compound | ΔLag 5 μM
1-Adamantanecarbonyl-d(LVFF)-nh2 [PPI-492] | 1.1
4-Methylvaleryl-d(LVFFA)-nh2 [PPI-524] | 1.6

Same assay, conditions: Table IX; 5 μM test compound

Compound | ΔLag 5 μM
2,4-Dihydroxybenzoyl-d(LVFFA)-nh2 [PPI-532] | 1.7
2-Formylphenoxyacetyl-d(LVFFA)-nh2 [PPI-554] | 2.6
2-Hydroxycinnamoyl-d(LVFFA)-nh2 [PPI-536] | 1.4
3,4-Dihydroxycinnamoyl-d(AFFVL)-nh2 [PPI-569] | 2.6
3,4-Dihydroxycinnamoyl-d(LFFVL)-nh2 [PPI-593] | 2.0
3,4-Dihydroxycinnamoyl-d(LVFFA)-nh2 [PPI-543] | 1.6
3,5-Dihydroxy-2-naphthoyl-d(AFFVL)-nh2 [PPI-568] | >6
3,7-Dihydroxy-2-naphthoyl-d(FFFVL)-nh2 [PPI-650] | 2.2
3,7-Dihydroxy-2-naphthoyl-d(LFFVL)-nh2 [PPI-648] | 3.1
3-(2-Hydroxyphenyl)propionyl-d(AFFVL)-nh2 [PPI-610] | 4.5
3-(2-Hydroxyphenyl)propionyl-d(FFVL)-nh2 [PPI-615] | 2.0
3-(4-Hydroxyphenyl)propionyl-d(FFVL)-nh2 [PPI-616] | 1.5
3-Formylbenzoyl-d(LVFFA)-nh2 [PPI-546] | 1.9
3-Hydroxycinnamoyl-d(LVFFA)-nh2 [PPI-538] | 2.0
3-Hydroxyphenylacetyl-d(LVFF)-nh2 [PPI-483] | 2.9
4-(2-Hydroxyphenyl)propionyl-d(AFFVL)-nh2 [PPI-611] | 3.2
4-Hydroxy-3-methoxycinnamoyl-d(LVFFA)-nh2 [PPI-555] | 1.7
4-Hydroxybenzoyl-d(AFFVL)-nh2 [PPI-629] | 2.9
4-Hydroxybenzoyl-d(LFFFL)-nh2 [PPI-643] | 2.2
4-Hydroxycinnamoyl-d(AFFVL)-nh2 [PPI-587] | 3.7
4-Hydroxycinnamoyl-d(LVFFA)-nh2 [PPI-537] | 1.6
4-Hydroxyphenylacetyl-d(FFFVL)-nh2 [PPI-651] | 2.1
4-Hydroxyphenylacetyl-d(LFFVL)-nh2 [PPI-649] | 5.1
5-Hydantoinacetyl-d(LVFFA)-nh2 [PPI-539] | 2.4
(±)-Mandelyl-d(AFFVL)-nh2 [PPI-584] | 4.8
Ac-d(LFFFL)-nh2 [PPI-644] | 2.1

Same assay, conditions: Table V; hydroxylated and oxygenated modifying groups; 5 μM test compound

Compound | ΔLag 5 μM
2,4-Dihydroxybenzoyl-d(LVFF)-nh2 [PPI-486] | 1.2
2-Hydroxyphenylacetyl-d(LVFF)-nh2 [PPI-481] | 2.0
3,4-Dihydroxycinnamoyl-d(LVFF)-nh2 [PPI-491] | 3.0
3,5-Dihydroxy-2-naphthoyl-d(LVFF)-nh2 [PPI-487] | 2.2
3,5-Dihydroxy-2-naphthoyl-d(LVFFA)-nh2 [PPI-523] | 3.8
3-Hydroxyphenylacetyl-d(LVFF)-nh2 [PPI-483] | 2.2
4-Hydroxycinnamoyl-d(LVFFA)-nh2 [PPI-537] | 1.0
(±)-Mandelyl-(±)-mandelyl-d(LVFFA)-nh2 [PPI-518] | 1.5
(±)-Mandelyl-d(LVFF)-nh2 [PPI-482 (isomer 1)] | 1.5
(±)-Mandelyl-d(LVFF)-nh2 [PPI-482 (isomer 2)] | 1.6

Same assay, conditions: Table VIII; 5 μM test compound

Compound | ΔLag 5 μM
3,5-Dihydroxy-2-naphthoyl-d(LVFFA)-nh2 [PPI-523] | 2.1
3,7-Dihydroxy-2-naphthoyl-d(LVFFA)-nh2 [PPI-548] | 2.5
4-Hydroxyphenylacetyl-d(LVFFA)-nh2 [PPI-559] | 3.5

Same assay, conditions: Table XI; 0.5 μM test compound

Compound | ΔLag
CC(C)C[C@@H](N)C(=O)N[C@@H](C(=O)N[C@H](Cc1ccccc1)C(=O)N[C@H](Cc1ccccc1)C(=O)N[C@H](Cc1ccccc1)C(N)=O)C(C)C [PPI-656, H-d(LVFFF)-nh2] (H-[dL][dV][dF][dF][dF]-NH2) | 2.3
CC(C)C[C@@H](N)C(=O)N[C@@H](C(=O)N[C@H](Cc1ccccc1)C(=O)N[C@H](Cc1ccccc1)C(=O)N[C@@H](C(N)=O)C(C)C)C(C)C [PPI-657, H-d(LVFFV)-nh2] (H-[dL][dV][dF][dF][dV]-NH2) | 1.7
CC(C)C[C@@H](NC(=O)[C@H](NC(=O)[C@@H](Cc1ccccc1)NC(=O)[C@@H](Cc1ccccc1)NC(=O)[C@@H](Cc1cccnc1)NC(=O)c1cc2cc(O)ccc2cc1O)C(C)C)C(N)=O [PPI-664, 3,7-Dihidroxy-2-naphthol-d(Pal-FFVL)-nh2] (X1-[d3Pal][dF][dF][dV][dL]-NH2) | 0
CC(C)C[C@@H](NC(=O)[C@H](NC(=O)[C@@H](Cc1ccccc1)NC(=O)[C@@H](Cc1ccccc1)NC(=O)[C@@H](Cc1cccnc1)NC(=O)c1ccc(O)cc1)C(C)C)C(N)=O [PPI-665, 4-Hydroxybenzoyl-d(Pal-FFVL)-nh2] ({Benzoyl(4-OH)}-[d3Pal][dF][dF][dV][dL]-NH2) | 1.5

Same assay, conditions: Table XI; 2.5 μM test compound

Compound | ΔLag
CC(C)C[C@@H](NC(=O)[C@H](NC(=O)[C@@H](Cc1ccccc1)NC(=O)[C@@H](Cc1ccccc1)NC(=O)[C@@H](C)NC(=O)Cc1ccncc1)C(C)C)C(N)=O [PPI-741, 4-Pyridylacetyl-d(AFFVL)-nh2] ({Acetyl(4-pyridyl)}-[dA][dF][dF][dV][dL]-NH2) | 2.0

Same assay, conditions: Table XI; 5 μM test compound

Compound | ΔLag
CC(C)C[C@@H](N)C(=O)N[C@@H](C(=O)N[C@H](Cc1ccccc1)C(=O)N[C@H](Cc1ccccc1)C(=O)N[C@H](Cc1ccccc1)C(N)=O)C(C)C [PPI-656, H-d(LVFFF)-nh2] (H-[dL][dV][dF][dF][dF]-NH2) | >2.5
CC(C)C[C@@H](N)C(=O)N[C@@H](C(=O)N[C@H](Cc1ccccc1)C(=O)N[C@H](Cc1ccccc1)C(=O)N[C@@H](C(N)=O)C(C)C)C(C)C [PPI-657, H-d(LVFFV)-nh2] (H-[dL][dV][dF][dF][dV]-NH2) | >10
CC(C)C[C@@H](NC(=O)[C@H](NC(=O)[C@@H](Cc1ccccc1)NC(=O)[C@@H](Cc1ccccc1)NC(=O)[C@@H](Cc1cccnc1)NC(=O)c1cc2cc(O)ccc2cc1O)C(C)C)C(N)=O [PPI-664, 3,7-Dihidroxy-2-naphthol-d(Pal-FFVL)-nh2] (X1-[d3Pal][dF][dF][dV][dL]-NH2) | 2
CC(C)C[C@@H](NC(=O)[C@H](NC(=O)[C@@H](Cc1ccccc1)NC(=O)[C@@H](Cc1ccccc1)NC(=O)[C@@H](Cc1cccnc1)NC(=O)c1ccc(O)cc1)C(C)C)C(N)=O [PPI-665, 4-Hydroxybenzoyl-d(Pal-FFVL)-nh2] ({Benzoyl(4-OH)}-[d3Pal][dF][dF][dV][dL]-NH2) | 2
CC(C)C[C@@H](NC(=O)[C@H](NC(=O)[C@@H](Cc1ccccc1)NC(=O)[C@@H](Cc1ccccc1)NC(=O)[C@@H](C)NC(=O)Cc1cccnc1)C(C)C)C(N)=O [PPI-730, 3-Pyridylacetyl-d(AFFVL)-nh2] ({Acetyl(3-pyridyl)}-[dA][dF][dF][dV][dL]-NH2) | 2
CC(C)C[C@@H](NC(=O)[C@H](NC(=O)[C@@H](Cc1ccccc1)NC(=O)[C@@H](Cc1ccccc1)NC(=O)[C@@H](C)NC(=O)c1ccncc1)C(C)C)C(N)=O [PPI-732, Isonicotinoyl-d(AFFVL)-nh2] (Isonicotinoyl-[dA][dF][dF][dV][dL]-NH2) | <2
CC(C)C[C@@H](NC(=O)[C@H](NC(=O)[C@@H](Cc1ccccc1)NC(=O)[C@@H](Cc1ccccc1)NC(=O)CN)C(C)C)C(N)=O [PPI-733, H-Glycyl-d(FFVL)-nh2] (H-G[dF][dF][dV][dL]-NH2) | 0
CC(C)C[C@@H](NC(=O)[C@H](NC(=O)[C@@H](Cc1ccccc1)NC(=O)[C@@H](Cc1ccccc1)NC(=O)[C@@H](C)NC(=O)CN)C(C)C)C(N)=O [PPI-734, H-Glycyl-d(AFFVL)-nh2] | >10
CC(C)C[C@@H](NC(=O)[C@H](NC(=O)[C@@H](Cc1ccccc1)NC(=O)[C@@H](Cc1ccccc1)NC(=O)[C@@H](C)NC(=O)c1ccnc2ccccc12)C(C)C)C(N)=O [PPI-746, 4-Quinolinecarboxyl-d(AFFVL)-nh2] (Quinoline4carbonyl-[dA][dF][dF][dV][dL]-NH2) | 2
CC(C)C[C@@H](NC(=O)[C@H](NC(=O)[C@@H](Cc1ccccc1)NC(=O)[C@@H](Cc1ccccc1)NC(=O)[C@@H](C)NC(=O)c1nccc2ccccc12)C(C)C)C(N)=O [PPI-748, 1-Isoquinolinecarboxyl-d(AFFVL)-nh2] (X5-[dA][dF][dF][dV][dL]-NH2) | <3
CC(C)C[C@@H](NC(=O)[C@H](NC(=O)[C@@H](Cc1ccccc1)NC(=O)[C@@H](Cc1ccccc1)NC(=O)[C@@H](C)NC(=O)c1cc2ccccc2cn1)C(C)C)C(N)=O [PPI-749] ({Isoquinolin(3-yl)carbonyl}-[dA][dF][dF][dV][dL]-NH2) | 3
CC(C)C[C@@H](NC(=O)c1ccc(O)cc1)C(=O)N[C@@H](C(=O)N[C@H](Cc1ccccc1)C(=O)N[C@H](Cc1ccc(O)cc1)C(=O)N[C@H](C)C(N)=O)C(C)C [PPI-772, 4-Hydroxybenzoyl-d(LVFYA)-nh2] ({Benzoyl(4-OH)}-[dL][dV][dF][dY][dA]-NH2) | 2
CC(C)C[C@@H](NC(=O)c1ccc(O)cc1)C(=O)N[C@@H](C(=O)N[C@H](Cc1ccc(O)cc1)C(=O)N[C@H](Cc1ccccc1)C(=O)N[C@H](C)C(N)=O)C(C)C [PPI-774, 4-Hydroxybenzoyl-d(LVYFA)-nh2] ({Benzoyl(4-OH)}-[dL][dV][dY][dF][dA]-NH2) | 1
CC(C)C[C@@H](NC(=O)c1ccc(O)cc1)C(=O)N[C@@H](C(=O)N[C@H](Cc1ccc(O)cc1)C(=O)N[C@H](Cc1ccc(O)cc1)C(=O)N[C@H](C)C(N)=O)C(C)C [PPI-775, 4-Hydroxybenzoyl-d(LVYYA)-nh2] ({Benzoyl(4-OH)}-[dL][dV][dY][dY][dA]-NH2) | 1
